Measurements as given in ChEMBL document CHEMBL1201862, “PubChem BioAssay data set” (2004).
One block for each compound: values may come before it. Activity calls are given as the source filed them.

Tests used:
[1] = blockers of HIV-1 ZM109 envelope-driven cell-cell fusion – HeLa effector, CEM target cells, luciferase, cherry-pick, dose response (AID 652058); format: functional, cell-based;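 further: luciferase signal from HIV-1 Env mediated cell-cell fusion of effector and target cells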
[2] = off-target signal loss in HeLa-CEM21 co-culture – HeLa F-luc CTL cells, cherry-picked, counter-screen for HIV-1 Env fusion inhibitor project, dose response (AID 652040); format: functional, cell-based;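 further: potency for signal decrease marking cytotoxic or nonspecific inhibition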
[3] = blockers of HIV-1 envelope-mediated cell-cell fusion – cherry-pick, dose response (AID 652057); format: functional, cell-based
[4] = HIV-1 AD8 envelope cell-cell fusion blockers – cherry-pick, dose response (AID 652062); format: functional, cell-based;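 further: luciferase signal from cell-cell fusion driven by HIV-1 clade B AD8 Env; potency is for inhibitors of fusion seen as a drop in luminescence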
Cytochrome P450 2D6 = Cytochrome P450 2D6 (Homo sapiens, UniProt P10635);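 further: CYP2D6 member of a cytochrome P450 panel assay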
[5] = viability loss in THP-1 monocytes – THP-1 cells, cytotoxicity control for Vif-APOBEC3G degradation inhibitor project, dose response (AID 1117359); format: functional; details: THP-1
Caspase-6 = molecular target: T1, Caspase-6 (Homo sapiens, UniProt P55212); test: inhibition of CASP6 peptide cleavage – biochemical, VEID-R110 fluorescence, cherry-pick, dose response (AID 720632)
T1 sequence (P55212 whole entry): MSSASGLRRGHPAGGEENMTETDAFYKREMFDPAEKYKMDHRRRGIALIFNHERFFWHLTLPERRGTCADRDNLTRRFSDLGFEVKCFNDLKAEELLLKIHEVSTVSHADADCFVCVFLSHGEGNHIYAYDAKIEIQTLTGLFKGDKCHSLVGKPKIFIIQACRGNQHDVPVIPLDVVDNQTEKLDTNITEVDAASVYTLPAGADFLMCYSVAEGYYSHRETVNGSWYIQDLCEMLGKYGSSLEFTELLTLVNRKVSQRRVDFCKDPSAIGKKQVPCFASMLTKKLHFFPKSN

[6] = NIH-3T3 fibroblast cytotoxicity, dose response, cytotoxicity control, cell-based, fluorescence, Alamar Blue, secondary assay (AID 2327); format: functional;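 further: NIH-3T3 mouse fibroblasts cultured with fluconazole at 8 µg/mL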
[7] = molecular target: T2, Short transient receptor potential channel 4 (Mus musculus, UniProt Q9QUQ5); test: block of DAMGO-driven TRPC4 calcium entry – cell-based, HEK293 TRPC4/mu-opioid, Fluo-4 calcium, dose response (AID 434942); format: functional;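 further: potency of inhibitors blocking the TRPC4 calcium response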
T2 sequence (Q9QUQ5 whole entry): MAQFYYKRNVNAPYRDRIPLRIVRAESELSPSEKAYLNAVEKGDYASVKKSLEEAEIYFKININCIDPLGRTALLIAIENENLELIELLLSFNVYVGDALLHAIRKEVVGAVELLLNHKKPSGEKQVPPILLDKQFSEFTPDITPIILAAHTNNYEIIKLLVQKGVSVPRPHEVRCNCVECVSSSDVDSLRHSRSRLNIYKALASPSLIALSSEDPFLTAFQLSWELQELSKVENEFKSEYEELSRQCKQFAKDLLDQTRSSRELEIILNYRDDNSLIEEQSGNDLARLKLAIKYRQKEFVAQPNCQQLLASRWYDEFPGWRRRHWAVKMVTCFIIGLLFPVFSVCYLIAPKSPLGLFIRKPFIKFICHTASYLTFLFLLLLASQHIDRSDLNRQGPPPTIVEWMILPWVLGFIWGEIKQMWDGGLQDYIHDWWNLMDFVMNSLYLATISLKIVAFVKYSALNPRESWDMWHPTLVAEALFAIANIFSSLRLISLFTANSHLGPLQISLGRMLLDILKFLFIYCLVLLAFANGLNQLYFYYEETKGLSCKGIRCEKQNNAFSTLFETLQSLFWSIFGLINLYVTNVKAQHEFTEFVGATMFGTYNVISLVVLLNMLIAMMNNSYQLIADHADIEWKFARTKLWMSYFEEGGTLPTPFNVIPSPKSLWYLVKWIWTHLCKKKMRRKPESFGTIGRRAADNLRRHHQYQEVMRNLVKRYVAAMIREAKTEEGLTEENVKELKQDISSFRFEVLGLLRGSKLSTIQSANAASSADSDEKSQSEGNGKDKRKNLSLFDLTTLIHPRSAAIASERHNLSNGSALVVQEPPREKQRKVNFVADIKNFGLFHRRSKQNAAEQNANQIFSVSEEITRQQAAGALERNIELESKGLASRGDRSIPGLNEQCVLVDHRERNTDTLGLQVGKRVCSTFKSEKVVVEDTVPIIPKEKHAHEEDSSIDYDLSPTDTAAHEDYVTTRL

[8] = OVCAR8 cell viability loss – plate reader, dry powder samples, PAX8 project, dose response (AID 743197); format: functional, cell-based; details: OVCAR-8
Paired box protein Pax-8 = Paired box protein Pax-8 (Homo sapiens, UniProt Q06710); test: PAX8 transcriptional activity inhibition in RMG-I – RMG-I cells, luciferase, cherry-pick, dose response (AID 687027); format: functional, cell-based;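 further: luciferase reporter driven by Pax8 target thyroperoxidase promoter measured by SteadyGlo luminescence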
[9] = general cell-killing toxicity readout – plate reader, dry powder samples, cytotoxicity control for PAX8 inhibitor project, dose response (AID 743021); format: functional, cell-based
[10] = OVCAR-3 cell viability loss – plate reader, dry powder samples, PAX8 inhibitor project, dose response (AID 743044); format: functional, cell-based
[11] = molecular target: T3, Sentrin-specific protease 7 (Homo sapiens, UniProt Q9BQF6); format: functional;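 further: Luminescence-based dose-response confirmation of ultra-high-throughput screening hits, measuring inhibition of SENP7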
T3 sequence (Q9BQF6 whole entry): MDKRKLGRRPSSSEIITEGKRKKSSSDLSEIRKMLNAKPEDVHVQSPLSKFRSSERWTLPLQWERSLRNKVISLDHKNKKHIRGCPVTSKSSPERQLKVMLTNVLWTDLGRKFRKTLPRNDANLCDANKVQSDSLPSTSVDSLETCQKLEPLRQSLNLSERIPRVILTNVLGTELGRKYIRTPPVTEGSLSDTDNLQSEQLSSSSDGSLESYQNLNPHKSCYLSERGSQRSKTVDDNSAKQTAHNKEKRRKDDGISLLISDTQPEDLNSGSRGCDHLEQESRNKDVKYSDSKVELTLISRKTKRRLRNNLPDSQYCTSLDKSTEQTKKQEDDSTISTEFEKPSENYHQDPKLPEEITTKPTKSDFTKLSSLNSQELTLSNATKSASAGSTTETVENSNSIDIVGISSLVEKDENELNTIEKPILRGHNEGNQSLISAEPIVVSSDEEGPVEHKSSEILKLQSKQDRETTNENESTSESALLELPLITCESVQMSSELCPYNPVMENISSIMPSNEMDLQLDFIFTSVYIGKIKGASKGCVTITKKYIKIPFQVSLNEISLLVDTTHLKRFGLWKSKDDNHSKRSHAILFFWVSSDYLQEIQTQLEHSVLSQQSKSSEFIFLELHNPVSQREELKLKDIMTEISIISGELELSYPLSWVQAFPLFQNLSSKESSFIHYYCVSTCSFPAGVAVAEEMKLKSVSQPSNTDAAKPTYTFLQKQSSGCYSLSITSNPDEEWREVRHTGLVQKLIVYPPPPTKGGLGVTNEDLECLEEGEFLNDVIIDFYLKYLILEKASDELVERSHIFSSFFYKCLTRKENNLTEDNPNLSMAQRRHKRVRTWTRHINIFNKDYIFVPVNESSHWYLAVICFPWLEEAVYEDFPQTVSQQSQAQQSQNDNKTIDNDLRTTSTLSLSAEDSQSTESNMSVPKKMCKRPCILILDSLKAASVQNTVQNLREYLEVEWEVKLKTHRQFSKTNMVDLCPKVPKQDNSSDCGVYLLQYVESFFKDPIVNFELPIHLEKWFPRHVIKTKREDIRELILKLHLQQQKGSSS

[12] = molecular target: T4, Sentrin-specific protease 8 (Homo sapiens, UniProt Q96LD8); format: functional;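 further: luminescence read-out of SENP8 inhibition, dose-response confirmation following an ultra-high-throughput screen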
T4 sequence (Q96LD8 whole entry): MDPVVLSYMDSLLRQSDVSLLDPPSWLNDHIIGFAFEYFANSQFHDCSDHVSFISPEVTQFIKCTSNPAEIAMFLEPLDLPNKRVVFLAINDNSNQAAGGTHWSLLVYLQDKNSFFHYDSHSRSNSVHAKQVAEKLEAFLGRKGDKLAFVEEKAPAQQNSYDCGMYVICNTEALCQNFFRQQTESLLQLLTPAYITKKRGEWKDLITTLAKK

Caspase-3 = molecular target: T5, Caspase-3 (Homo sapiens, UniProt P42574); format: functional;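 further: Dose-response selectivity test against caspase-3 for candidate inhibitors of sentrin-specific proteases (SENPs)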
T5 sequence (P42574 whole entry): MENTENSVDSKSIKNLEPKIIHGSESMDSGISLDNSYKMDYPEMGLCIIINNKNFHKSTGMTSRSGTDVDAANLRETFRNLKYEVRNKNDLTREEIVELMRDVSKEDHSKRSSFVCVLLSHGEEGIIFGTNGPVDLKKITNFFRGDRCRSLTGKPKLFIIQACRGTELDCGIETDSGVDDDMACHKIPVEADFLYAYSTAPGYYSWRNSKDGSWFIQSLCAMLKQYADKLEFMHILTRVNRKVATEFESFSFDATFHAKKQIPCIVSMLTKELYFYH

[13] = molecular target: T6, Sentrin-specific protease 6 (Homo sapiens, UniProt Q9GZR1); format: functional;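 further: Luminescence-based dose-response confirmatory assay of SENP6 inhibition, following up an ultra-high-throughput screen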
T6 sequence (Q9GZR1 whole entry): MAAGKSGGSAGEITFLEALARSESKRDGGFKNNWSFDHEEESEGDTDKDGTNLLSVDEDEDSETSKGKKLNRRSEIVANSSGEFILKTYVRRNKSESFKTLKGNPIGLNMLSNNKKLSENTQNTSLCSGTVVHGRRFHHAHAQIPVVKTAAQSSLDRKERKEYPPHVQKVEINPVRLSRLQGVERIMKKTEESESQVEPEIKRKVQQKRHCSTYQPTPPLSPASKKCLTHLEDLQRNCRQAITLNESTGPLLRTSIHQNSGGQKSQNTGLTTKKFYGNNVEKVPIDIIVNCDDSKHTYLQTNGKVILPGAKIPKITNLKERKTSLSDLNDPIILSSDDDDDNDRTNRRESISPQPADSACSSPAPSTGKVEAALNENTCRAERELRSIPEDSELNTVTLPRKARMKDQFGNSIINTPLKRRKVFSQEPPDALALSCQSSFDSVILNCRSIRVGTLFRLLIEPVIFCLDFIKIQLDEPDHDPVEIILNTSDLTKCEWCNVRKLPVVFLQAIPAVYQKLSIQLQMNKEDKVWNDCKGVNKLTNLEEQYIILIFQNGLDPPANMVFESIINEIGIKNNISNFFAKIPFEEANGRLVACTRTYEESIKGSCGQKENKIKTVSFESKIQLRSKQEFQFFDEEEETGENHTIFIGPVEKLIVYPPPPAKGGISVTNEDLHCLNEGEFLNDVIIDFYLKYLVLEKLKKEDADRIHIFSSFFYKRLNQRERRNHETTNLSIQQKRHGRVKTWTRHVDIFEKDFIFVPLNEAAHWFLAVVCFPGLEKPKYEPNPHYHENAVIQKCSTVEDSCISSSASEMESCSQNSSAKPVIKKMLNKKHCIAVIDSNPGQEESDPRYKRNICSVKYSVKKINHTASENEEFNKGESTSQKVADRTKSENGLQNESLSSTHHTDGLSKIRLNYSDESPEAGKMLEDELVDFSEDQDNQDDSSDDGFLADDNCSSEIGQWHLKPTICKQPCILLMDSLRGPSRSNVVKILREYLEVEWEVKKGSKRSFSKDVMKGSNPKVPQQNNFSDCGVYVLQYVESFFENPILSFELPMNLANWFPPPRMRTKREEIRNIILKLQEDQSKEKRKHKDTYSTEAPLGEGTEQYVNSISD

[14] = molecular target: T7, Calpain-2 catalytic subunit (Sus scrofa, UniProt P43367); test: m-calpain protease blockers, concentration series – biochemical, fluorogenic peptide substrate, dose response (AID 1420); format: functional
T7 sequence (P43367 whole entry): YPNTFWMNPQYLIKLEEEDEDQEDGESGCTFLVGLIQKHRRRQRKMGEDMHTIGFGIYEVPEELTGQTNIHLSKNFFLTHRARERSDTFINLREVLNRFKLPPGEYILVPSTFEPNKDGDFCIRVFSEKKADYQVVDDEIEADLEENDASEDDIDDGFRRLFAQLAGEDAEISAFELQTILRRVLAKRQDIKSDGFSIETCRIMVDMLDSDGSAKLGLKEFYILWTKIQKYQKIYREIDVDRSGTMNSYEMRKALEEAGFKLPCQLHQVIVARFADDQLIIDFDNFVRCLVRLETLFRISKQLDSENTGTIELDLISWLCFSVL

[15] = Trypanosoma cruzi growth suppression in host cells – NIH3T3 host cells, beta-gal luminescence, confirmation (AID 2044); format: functional, cell-based;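 further: intracellular parasites grown in NIH/3T3 mouse fibroblasts as host cells; luminescent beta-galactosidase reporter signal from transgenic T. cruzi replicating inside host cells; inhibitors lower the luminescence signal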
[16] = NIH3T3 cell viability loss – ATP luminescence, mouse fibroblasts, counter-screen, dose response (AID 2010); format: functional, cell-based;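 further: cells exposed to compound for about 90 hours before reading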

Sequence of Paired box protein Pax-8 (Q06710 whole entry): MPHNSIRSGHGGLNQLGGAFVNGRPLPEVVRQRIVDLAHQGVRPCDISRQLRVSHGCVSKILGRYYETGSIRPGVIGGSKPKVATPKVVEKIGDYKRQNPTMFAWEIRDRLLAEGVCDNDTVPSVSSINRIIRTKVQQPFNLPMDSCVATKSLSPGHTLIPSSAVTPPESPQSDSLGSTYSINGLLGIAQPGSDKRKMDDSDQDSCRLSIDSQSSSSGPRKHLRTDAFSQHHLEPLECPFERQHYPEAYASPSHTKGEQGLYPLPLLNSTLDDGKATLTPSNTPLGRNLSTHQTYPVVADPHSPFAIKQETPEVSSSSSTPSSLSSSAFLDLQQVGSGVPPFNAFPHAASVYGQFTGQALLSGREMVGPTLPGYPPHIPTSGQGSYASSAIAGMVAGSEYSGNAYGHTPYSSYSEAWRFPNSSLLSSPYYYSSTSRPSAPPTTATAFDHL
Sequence of Cytochrome P450 2D6 (P10635 whole entry): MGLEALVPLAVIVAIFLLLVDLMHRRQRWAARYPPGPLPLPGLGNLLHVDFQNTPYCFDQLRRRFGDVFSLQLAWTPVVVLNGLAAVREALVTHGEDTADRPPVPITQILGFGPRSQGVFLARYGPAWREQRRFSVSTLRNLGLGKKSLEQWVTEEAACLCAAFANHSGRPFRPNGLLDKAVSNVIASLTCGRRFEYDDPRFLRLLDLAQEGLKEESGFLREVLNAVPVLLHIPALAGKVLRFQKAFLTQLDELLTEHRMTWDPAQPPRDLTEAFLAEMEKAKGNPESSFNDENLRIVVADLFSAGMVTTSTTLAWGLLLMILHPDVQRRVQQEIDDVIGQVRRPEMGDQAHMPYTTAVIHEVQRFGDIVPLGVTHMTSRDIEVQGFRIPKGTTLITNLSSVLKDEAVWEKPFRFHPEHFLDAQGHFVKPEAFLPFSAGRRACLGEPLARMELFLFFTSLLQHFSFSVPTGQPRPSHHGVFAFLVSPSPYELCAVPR

SMILES: CSCCC(NS(=O)(=O)c1ccc2c(c1)oc(=O)n2C)C(=O)NC1CCCc2ccccc21 (configuration not stated)
AC50 [1]: 3.16 µM (active)
AC50 [2]: 7.6 µM (active)
AC50 [3]: 4.21 µM (active)
AC50 [4]: 8.37 µM (active)

AC50 (Cytochrome P450 2D6): 20 µM (inconclusive)
SMILES: Cc1ccc(S(=O)(=O)N(CC(=O)NCCC2=CCCCC2)Cc2ccccc2F)cc1
CC50 [5]: > 40 µM (active)

AC50 (Caspase-6): 28.8 µM (active)
SMILES: O=C(O)c1c2c(nc3ccc(Cl)cc13)CCC2

SMILES: Cc1c(CCOC(=O)CC23CC4CC(CC(C4)C2)C3)sc[n+]1Cc1ccccc1
EC50 [6]: > 160 µM (inactive)
EC50 [7]: 5.96 µM (active)

SMILES: CCc1ccc([C@H]2[C@@H]3C(=O)C[C@@H]4C(=O)N(C5CCCCC5)C(=O)[C@@H]4[C@@H]3CN2S(=O)(=O)c2ccc(C)cc2)cc1
AC50 [1]: 1.99 µM (active)
AC50 [2]: 2.53 µM (active)
AC50 [3]: 1.09 µM (active)
AC50 [4]: 2.15 µM (active)

SMILES: O=C(C[C@@H]1C[C@@H]2c3cc(NS(=O)(=O)c4ccc(F)cc4)ccc3O[C@@H]2[C@@H](CO)O1)NCc1ccc(Oc2ccccc2)cc1
AC50 [8]: 17.9 µM (active)
AC50 (Paired box protein Pax-8): 6.15 µM (active)
AC50 [9]: 27.8 µM (active)
AC50 [10]: 22.1 µM (active)

IC50 [11]: 6.05 µM (active)
IC50 (Caspase-3): 32.2 µM (active)
IC50 [13]: 9.01 µM (active)
SMILES: O=C(COC(=O)c1cccc(NC(=O)c2ccco2)c1)c1ccc(Br)cc1
IC50 [12]: 8.37 µM (active)

AC50 (Caspase-6): 19.7 µM (active)
SMILES: O=c1c(-c2cc(O)[nH]n2)c(O)c2ccccc2n1Cc1ccccc1

IC50 [14]: 10.3 µM (not active)
EC50 [7]: 5.31 µM (active)
SMILES: CCN(CC)c1ncnc2scc(C3COc4ccccc4O3)c12 (configuration not stated)

IC50 [11]: 1.78 µM (active)
IC50 (Caspase-3): 13.1 µM (active)
IC50 [13]: 7.16 µM (active)
SMILES: Cc1ccnc(Nc2nc(-c3ccccc3)cs2)c1
IC50 [12]: 3.93 µM (active)

SMILES: Cc1cccc2cc(CN(CCCN(C)C)C(S)=NCCc3ccccc3)c(O)nc12
EC50 [15]: 0.69 µM (active)
EC50 [16]: > 30 µM (not active)
EC50 [7]: 4.22 µM (active)

AC50 (Caspase-6): 51.5 µM (active)
SMILES: O=C1Cc2ccccc2C(=O)N1Nc1ccccc1
